Molecular target: T1, EHMT2 (G9a) (Homo sapiens, UniProt Q96KQ7)
T1 sequence (Q96KQ7 1-1210): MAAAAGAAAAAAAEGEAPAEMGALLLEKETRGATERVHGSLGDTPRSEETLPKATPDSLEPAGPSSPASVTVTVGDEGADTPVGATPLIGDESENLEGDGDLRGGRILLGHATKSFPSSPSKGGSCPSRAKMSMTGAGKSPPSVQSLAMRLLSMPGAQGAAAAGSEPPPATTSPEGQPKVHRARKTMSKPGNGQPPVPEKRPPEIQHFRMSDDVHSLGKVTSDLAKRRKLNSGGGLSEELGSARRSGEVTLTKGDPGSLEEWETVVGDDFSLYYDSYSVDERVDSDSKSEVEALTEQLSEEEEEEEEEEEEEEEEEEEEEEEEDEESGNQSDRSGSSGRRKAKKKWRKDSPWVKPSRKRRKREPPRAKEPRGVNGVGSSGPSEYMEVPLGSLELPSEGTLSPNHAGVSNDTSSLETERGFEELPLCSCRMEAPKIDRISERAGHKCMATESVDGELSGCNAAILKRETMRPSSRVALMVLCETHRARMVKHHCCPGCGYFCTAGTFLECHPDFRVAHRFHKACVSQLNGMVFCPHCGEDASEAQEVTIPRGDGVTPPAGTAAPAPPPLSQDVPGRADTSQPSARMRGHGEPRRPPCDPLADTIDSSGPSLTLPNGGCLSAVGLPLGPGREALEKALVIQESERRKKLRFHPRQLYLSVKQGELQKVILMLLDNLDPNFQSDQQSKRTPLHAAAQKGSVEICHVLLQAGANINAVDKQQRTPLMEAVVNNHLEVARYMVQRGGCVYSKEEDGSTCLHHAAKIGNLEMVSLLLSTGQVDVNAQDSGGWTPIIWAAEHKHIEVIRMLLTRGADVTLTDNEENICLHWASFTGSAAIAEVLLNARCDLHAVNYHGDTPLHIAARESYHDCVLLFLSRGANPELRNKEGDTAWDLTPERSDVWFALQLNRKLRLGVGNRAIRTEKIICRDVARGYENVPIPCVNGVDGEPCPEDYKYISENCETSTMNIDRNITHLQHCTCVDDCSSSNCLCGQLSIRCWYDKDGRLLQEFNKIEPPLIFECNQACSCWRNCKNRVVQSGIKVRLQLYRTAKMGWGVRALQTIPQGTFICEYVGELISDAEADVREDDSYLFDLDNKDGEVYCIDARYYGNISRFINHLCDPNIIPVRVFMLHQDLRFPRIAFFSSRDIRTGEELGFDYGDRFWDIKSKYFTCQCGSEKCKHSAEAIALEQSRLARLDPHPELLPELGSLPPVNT
Test: Competitive affinity-based chemoproteomics (UNC0965 matrix), PBMC cell extract
Assay type: binding
Parameters: endogenous in cells
Settings: 20 µM competitor
Experimental: described.[2] Lysates were precleared with bead slurry (100 μL) for 30 min at 4 °C and then treated with UNC0638 or UNC0737 (20 μM) or DMSO control for 30 min at 4 °C followed by incubation with affinity matrix for 2 h at 4 °C. Affinity matrices were washed with buffer A (5 mL) and proteins eluted with 100 μL of 2x Laemmli sample buffer, 100 mM DTT, in PBS and heating for 10 min at 90 °C.
Eluents (70 µL) were diluted in 0.1 M Tris (pH 7.8) to 200 µL, reduced with 5 mM DTT for 30 min at RT, and alkylated with 20 mM iodoacetamide for 30 min at RT in the dark. Proteins were precipitated by sequential addition of MeOH (600 µL), CHCl3 (150 µL) and H2O (450 µL), pelleted (17,000 × g, 5 min), washed with further MeOH (2 × 600 µL), and re-pelleted. Air dried pellets were resuspended in 50 μL 6 M urea (pH 7.8) by vortexing and then diluted with 250 μL H2O before adding 1 µg trypsin for overnight incubation at 37 °C. The digests were acidified with FA (1% v/v final concentration), desalted using SOLA HRP SPE Cartridges (Thermo Fisher), eluted with 69% v/v MeCN, 0.1% v/v FA in H2O (600 μL) and dried in vacuo. Dried peptides were stored at -20 °C before resuspension in 2% v/v MeCN, 0.1% v/v FA in H2O (20 μL) for LC-MS/MS analysis.
LC-MS/MS Data Acquisition
Digested samples were analysed by nano-UPLC–MS/MS using a Dionex Ultimate 3000 nano UPLC fitted with an EASY spray column (75 μm × 500 mm, 2 μm particle size, Thermo Scientific), coupled to an Orbitrap Q Exactive instrument. […]
Raw data was processed using MaxQuant[3] version 2.0.1.0 and the reference complete human proteome FASTA file (UniProt, downloaded 05.08.21). Label Free Quantification (LFQ) and Match Between Runs were selected; Cysteine carbamidomethylation was selected as a fixed modification, and methionine oxidation and asparagine deamidation as variable modifications. Default settings for identification and quantification were used. […]
mode selected for both identification and quantification of proteins (razor peptides are uniquely assigned to protein groups and not to individual proteins).

## COc1cc2c(NC3CCN(C(C)C)CC3)nc(C3CCCCC3)nc2cc1OCCCN1CCCC1 [UNC0638]
  EHMT2 (G9a) binding to the matrix: reduced binding to the matrix
